From patent publication US20240150333A1, “TAF1 INHIBITORS” (H. LEE MOFFITT CANCER CENTER AND RESEARCH INSTITUTE, INC., priority 2020, published 2024)
Entries after “also recorded” stand apart in the source; their conditions may differ.

How the values were obtained:
[1] = target: T1, TAF1-T (TAF1 tandem bromodomain, BD1 and BD2) (Homo sapiens, UniProt P21675); test: Differential scanning fluorimetry (DSF) thermal shift; assay type: binding
T1 construct: tandem bromodomain (residues 1373-1635); His6 (TEV-cleavable) (cleaved yes); host or cells: E. coli BL21 (DE3)
T1 sequence (P21675 1373-1635 isoform P21675-1): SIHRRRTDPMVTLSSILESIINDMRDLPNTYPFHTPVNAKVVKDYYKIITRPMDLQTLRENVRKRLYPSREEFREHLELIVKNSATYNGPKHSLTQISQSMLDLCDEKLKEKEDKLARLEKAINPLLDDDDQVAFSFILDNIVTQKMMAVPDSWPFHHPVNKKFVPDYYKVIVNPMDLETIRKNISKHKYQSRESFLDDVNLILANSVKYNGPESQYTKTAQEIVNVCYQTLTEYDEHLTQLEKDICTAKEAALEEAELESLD

[2] = target: T2, TAF1-T (TAF1 tandem bromodomain) (Homo sapiens, UniProt P21675); test: Isothermal titration calorimetry (ITC); assay type: binding; conditions: Table 3; 298.15 K
T2 construct: tandem bromodomain (residues 1373-1635); His6 (TEV-cleavable) (cleaved yes); host or cells: E. coli BL21 (DE3)
T2 sequence (P21675 1373-1635 isoform P21675-1): T1 sequence (P21675 1373-1635 isoform P21675-1)

TAF1-2 (TAF1 BD2) = target: T3, TAF1-2 (TAF1 BD2) (Homo sapiens, UniProt P21675); test: Isothermal titration calorimetry (ITC); assay type: binding; conditions: Table 3; 288.15 K
T3 construct: BD2 (residues 1501-1635); His6 (TEV-cleavable) (cleaved yes); host or cells: E. coli BL21 (DE3)
T3 sequence (P21675 1501-1635 isoform P21675-1): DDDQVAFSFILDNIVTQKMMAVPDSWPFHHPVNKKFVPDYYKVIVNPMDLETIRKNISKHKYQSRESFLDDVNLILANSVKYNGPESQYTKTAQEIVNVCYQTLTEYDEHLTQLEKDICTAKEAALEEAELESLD

panel of 32 bromodomains = test: Profiling across a panel of 32 bromodomains (DiscoveRx), overall statement; assay type: binding, human; conditions: 20 μM concentration
A549 lung cancer cells = test: p53 pathway markers by western blot in A549 cells; assay type: cell-based, human
ATAD2B = target: T4, ATAD2B (Homo sapiens, UniProt Q9ULI0); test: Bromoscan selectivity profiling (DiscoveRx); assay type: binding; conditions: at 20,000 nM
T4 construct: 32 bromodomains (by DiscoveRx); purchased DiscoveRx (BromoScan service)
Experimental: (§1) qPCR-based BRD binding assay. Another method for the determination of dissociation constants of BRD-ligand complexes is offered by DiscoveRx Corp. The assay is based on competition between test compound and immobilized high-affinity ligand for binding to the KAc site of BRDs. The amount of TAF1 remaining on an immobilized high-affinity ligand in the presence of ligand is measured using a quantitative real-time polymerase chain reaction (qPCR) method that detects the associated DNA label tagged to the BRD.
(§2) Inhibitor selectivity assays To assess target selectivity, compounds with highest biochemical and cellular activities can be profiled against panels of BRDs and kinases using the services of DiscoveRx and/or Reaction biology, as we have done previously.

BAZ2A = target: T5, BAZ2A (Homo sapiens, UniProt Q9UIF9); test: Bromoscan selectivity profiling (DiscoveRx); assay type: binding; conditions: at 20,000 nM
T5 construct: 32 bromodomains (by DiscoveRx); purchased DiscoveRx (BromoScan service)
Experimental: as §1, §2

BRD2(1) = target: T6, BRD2(1) (Homo sapiens, UniProt P25440); test: Bromoscan selectivity profiling (DiscoveRx); assay type: binding; conditions: at 20,000 nM
T6 construct: 32 bromodomains (by DiscoveRx); purchased DiscoveRx (BromoScan service)
Experimental: as §1, §2

BRD3(2) = target: T7, BRD3(2) (Homo sapiens, UniProt Q15059); test: Bromoscan selectivity profiling (DiscoveRx); assay type: binding; conditions: at 20,000 nM
T7 construct: 32 bromodomains (by DiscoveRx); purchased DiscoveRx (BromoScan service)
Experimental: as §1, §2

BRD4(1) = target: T8, BRD4(1) (Homo sapiens, UniProt O60885); test: Bromoscan selectivity profiling (DiscoveRx); assay type: binding; conditions: at 20,000 nM
T8 construct: 32 bromodomains (by DiscoveRx); purchased DiscoveRx (BromoScan service)
Experimental: as §1, §2

BRD4(2) = target: T9, BRD4(2) (Homo sapiens, UniProt O60885); test: Bromoscan selectivity profiling (DiscoveRx); assay type: binding; conditions: at 20,000 nM
T9 construct: purchased DiscoveRx
Experimental: as §1, §2

BRD7 = target: T10, BRD7 (Homo sapiens, UniProt Q9NPI1); test: Bromoscan selectivity profiling (DiscoveRx); assay type: binding; conditions: at 20,000 nM
T10 construct: purchased DiscoveRx
Experimental: as §1, §2

BRD9 = target: T11, BRD9 (Homo sapiens, UniProt Q9H8M2); test: Bromoscan selectivity profiling (DiscoveRx); assay type: binding; conditions: at 20,000 nM
T11 construct: purchased DiscoveRx
Experimental: as §1, §2

BRDT(2) = target: T12, BRDT(2) (Homo sapiens, UniProt Q58F21); test: Bromoscan selectivity profiling (DiscoveRx); assay type: binding; conditions: at 20,000 nM
T12 construct: BRDT(2); purchased DiscoveRx
Experimental: as §1, §2

BRPF1 = target: T13, BRPF1 (Homo sapiens, UniProt P55201); test: Bromoscan selectivity profiling (DiscoveRx); assay type: binding; conditions: at 20,000 nM
T13 construct: purchased DiscoveRx
Experimental: as §1, §2

BRPF2/BRD1 = target: T14, BRPF2/BRD1 (Homo sapiens, UniProt O95696); test: Bromoscan selectivity profiling (DiscoveRx); assay type: binding; conditions: at 20,000 nM
T14 construct: 32 bromodomains (by DiscoveRx); purchased DiscoveRx (BromoScan service)
Experimental: as §1, §2

CECR2 = target: T15, CECR2 (Homo sapiens, UniProt Q9BXF3); test: Bromoscan selectivity profiling (DiscoveRx); assay type: binding; conditions: at 20,000 nM
T15 construct: purchased DiscoveRx
Experimental: as §1, §2

CREBBP = target: T16, CREBBP (Homo sapiens, UniProt Q92793); test: Bromoscan selectivity profiling (DiscoveRx); assay type: binding; conditions: at 20,000 nM
T16 construct: purchased DiscoveRx
Experimental: as §1, §2

FALZ = target: T17, FALZ (Homo sapiens, UniProt Q12830); test: Bromoscan selectivity profiling (DiscoveRx); assay type: binding; conditions: at 20,000 nM
T17 construct: purchased DiscoveRx
Experimental: as §1, §2

GCN5L(2) = target: T18, GCN5L(2) (Homo sapiens, UniProt Q92830); test: Bromoscan selectivity profiling (DiscoveRx); assay type: binding; conditions: at 20,000 nM
T18 construct: purchased DiscoveRx
Experimental: as §1, §2

PBRM1(5) = target: T19, PBRM1(5) (Homo sapiens, UniProt Q86U86); test: Bromoscan selectivity profiling (DiscoveRx); assay type: binding; conditions: at 20,000 nM
T19 construct: PBRM1(5); purchased DiscoveRx
Experimental: as §1, §2

PCAF = target: T20, PCAF (Homo sapiens, UniProt Q92831); test: Bromoscan selectivity profiling (DiscoveRx); assay type: binding; conditions: at 20,000 nM
T20 construct: purchased DiscoveRx
Experimental: as §1, §2

SMARCA2 = target: T21, SMARCA2 (Homo sapiens, UniProt P51531); test: Bromoscan selectivity profiling (DiscoveRx); assay type: binding; conditions: at 20,000 nM
T21 construct: purchased DiscoveRx
Experimental: as §1, §2

SMARCA4 = target: T22, SMARCA4 (Homo sapiens, UniProt P51532); test: Bromoscan selectivity profiling (DiscoveRx); assay type: binding; conditions: at 20,000 nM
T22 construct: purchased DiscoveRx
Experimental: as §1, §2

TAF1L(2) = target: T23, TAF1L(2) (Homo sapiens, UniProt Q8IZX4); test: Bromoscan selectivity profiling (DiscoveRx); assay type: binding; conditions: at 20,000 nM
T23 construct: purchased DiscoveRx
Experimental: as §1, §2

TRIM24(PHD, Bromo.) = target: T24, TRIM24(PHD, Bromo.) (Homo sapiens, UniProt O15164); test: Bromoscan selectivity profiling (DiscoveRx); assay type: binding; conditions: at 20,000 nM
T24 construct: TRIM24(PHD, Bromo.); purchased DiscoveRx
Experimental: as §1, §2

WDR9(2) = target: T25, WDR9(2) (Homo sapiens, UniProt Q9NSI6); test: Bromoscan selectivity profiling (DiscoveRx); assay type: binding; conditions: at 20,000 nM
T25 construct: purchased DiscoveRx
Experimental: as §1, §2

TRIM33(PHD, Bromo.) = test: Bromoscan selectivity profiling (DiscoveRx); assay type: binding, human; conditions: at 20,000 nM
Experimental: as §1, §2

T18 sequence (Q92830 728-832 limits assumed): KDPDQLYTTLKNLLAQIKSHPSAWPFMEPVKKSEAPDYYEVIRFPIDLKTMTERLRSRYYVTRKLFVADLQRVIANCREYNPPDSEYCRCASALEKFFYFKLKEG
T25 sequence (Q9NSI6 1313-1418 limits assumed): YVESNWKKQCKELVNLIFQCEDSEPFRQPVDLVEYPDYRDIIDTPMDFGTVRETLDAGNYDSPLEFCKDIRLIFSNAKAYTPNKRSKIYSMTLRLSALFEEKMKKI
T13 sequence (P55201 628-732 limits assumed): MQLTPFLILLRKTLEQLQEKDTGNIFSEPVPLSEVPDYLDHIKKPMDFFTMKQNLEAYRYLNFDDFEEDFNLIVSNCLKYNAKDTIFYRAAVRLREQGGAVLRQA
T24 sequence (O15164 824-1006 limits assumed): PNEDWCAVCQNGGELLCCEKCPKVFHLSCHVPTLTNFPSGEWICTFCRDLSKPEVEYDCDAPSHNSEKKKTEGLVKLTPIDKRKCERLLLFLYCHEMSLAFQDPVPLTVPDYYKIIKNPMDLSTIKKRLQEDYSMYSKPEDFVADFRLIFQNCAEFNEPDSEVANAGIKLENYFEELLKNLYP
T5 sequence (Q9UIF9 1793-1897 limits assumed): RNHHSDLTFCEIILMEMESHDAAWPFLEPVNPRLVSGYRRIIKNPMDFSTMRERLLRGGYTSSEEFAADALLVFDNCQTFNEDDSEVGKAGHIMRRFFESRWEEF
T11 sequence (Q9H8M2 136-240 limits assumed): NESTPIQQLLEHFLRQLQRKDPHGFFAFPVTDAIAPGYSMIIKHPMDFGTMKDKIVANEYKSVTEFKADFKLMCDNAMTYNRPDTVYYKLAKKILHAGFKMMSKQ
T16 sequence (Q92793 1085-1192 limits assumed): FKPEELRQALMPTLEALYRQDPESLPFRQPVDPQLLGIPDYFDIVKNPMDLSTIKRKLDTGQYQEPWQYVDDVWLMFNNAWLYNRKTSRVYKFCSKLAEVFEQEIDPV
T4 sequence (Q9ULI0 951-1066 limits assumed): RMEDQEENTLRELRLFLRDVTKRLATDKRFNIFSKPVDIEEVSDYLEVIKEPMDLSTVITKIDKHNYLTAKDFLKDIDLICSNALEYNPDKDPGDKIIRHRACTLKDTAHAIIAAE
T21 sequence (P51531 1378-1506 limits assumed): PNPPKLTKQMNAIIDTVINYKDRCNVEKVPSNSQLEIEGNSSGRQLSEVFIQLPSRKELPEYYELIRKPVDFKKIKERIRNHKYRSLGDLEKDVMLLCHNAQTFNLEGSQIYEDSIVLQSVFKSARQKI
T19 sequence (Q86U86 653-763 limits assumed): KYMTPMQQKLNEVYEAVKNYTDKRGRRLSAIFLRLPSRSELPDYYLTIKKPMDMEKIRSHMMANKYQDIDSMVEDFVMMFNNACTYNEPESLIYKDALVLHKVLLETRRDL
T15 sequence (Q9BXF3 434-538 limits assumed): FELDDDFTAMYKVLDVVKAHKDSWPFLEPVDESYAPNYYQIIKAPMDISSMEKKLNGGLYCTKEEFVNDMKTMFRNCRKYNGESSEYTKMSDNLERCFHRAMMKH
T6 sequence (P25440 74-180 limits assumed): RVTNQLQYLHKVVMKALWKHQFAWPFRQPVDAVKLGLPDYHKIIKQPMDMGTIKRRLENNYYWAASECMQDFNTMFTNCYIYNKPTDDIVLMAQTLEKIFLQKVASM
T23 sequence (Q8IZX4 1517-1626 limits assumed): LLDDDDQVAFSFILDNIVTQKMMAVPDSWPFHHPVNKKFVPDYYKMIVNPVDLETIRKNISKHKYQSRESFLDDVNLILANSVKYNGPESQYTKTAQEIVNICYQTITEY
T14 sequence (O95696 562-666 limits assumed): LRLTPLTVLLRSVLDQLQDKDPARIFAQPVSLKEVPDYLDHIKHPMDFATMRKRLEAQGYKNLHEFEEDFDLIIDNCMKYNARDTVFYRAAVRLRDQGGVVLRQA
T7 sequence (Q15059 306-415 limits assumed): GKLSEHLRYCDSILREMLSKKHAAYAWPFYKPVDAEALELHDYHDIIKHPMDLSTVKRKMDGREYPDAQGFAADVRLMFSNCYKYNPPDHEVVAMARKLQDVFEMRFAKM
T10 sequence (Q9NPI1 131-235 limits assumed): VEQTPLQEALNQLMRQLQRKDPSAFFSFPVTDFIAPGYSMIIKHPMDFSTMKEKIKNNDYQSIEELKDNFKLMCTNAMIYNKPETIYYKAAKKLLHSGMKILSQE
T22 sequence (P51532 1453-1564 limits assumed): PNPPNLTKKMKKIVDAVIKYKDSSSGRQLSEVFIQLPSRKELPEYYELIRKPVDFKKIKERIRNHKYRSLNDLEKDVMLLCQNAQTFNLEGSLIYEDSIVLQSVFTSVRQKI
T20 sequence (Q92831 723-827 limits assumed): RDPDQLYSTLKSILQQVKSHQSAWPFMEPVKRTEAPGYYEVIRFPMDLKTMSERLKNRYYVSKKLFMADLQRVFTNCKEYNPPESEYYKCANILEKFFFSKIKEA

- DSF (ΔTm, ° C.) TAF1-T ([1]; Table 1 (Example 1)): 5.8 ± 0.5 °C
- ΔTm at 100 µM ([1]; Table 2 (Example 2), 100 μM compound, standard deviation from two experiments): 3.1 °C
- DSF (ΔTm, ° C.) TAF1-T ([1]; Table 2 (Example 2), 100 μM compound, standard deviation from two experiments, 100 µM): 3.2 ± 0.1 °C
- ITC N (stoichiometry), TAF1-T [2]: 1.11
- ITC TΔS, TAF1-T [2]: 2.26 kcal/mol
- ITC ΔH, TAF1-T [2]: -5.82 kcal/mol
- ITC N (stoichiometry), TAF1-2 (TAF1-2 (TAF1 BD2)): 0.99
- ITC TΔS, TAF1-2 (TAF1-2 (TAF1 BD2)): 3.26 kcal/mol
- ITC ΔH, TAF1-2 (TAF1-2 (TAF1 BD2)): -4.36 kcal/mol
- inhibition at 20 µM (ATAD2B): 0%
- inhibition at 20 µM (BAZ2A): 0%
- inhibition at 20 µM (BRD2(1)): 46%
- inhibition at 20 µM (BRD3(2)): 82%
- inhibition at 20 µM (BRD4(1)): 50%
- inhibition at 20 µM (BRD4(2)): 69%
- inhibition at 20 µM (BRD7): 14%
- inhibition at 20 µM (BRD9): 13%
- inhibition at 20 µM (BRDT(2)): 38%
- inhibition at 20 µM (BRPF1): 11%
- inhibition at 20 µM (BRPF2/BRD1): 6%
- inhibition at 20 µM (CECR2): 92.3%
- inhibition at 20 µM (CREBBP): 20%
- inhibition at 20 µM (FALZ): 11%
- inhibition at 20 µM (GCN5L(2)): 27%
- inhibition at 20 µM (PBRM1(5)): 0%
- inhibition at 20 µM (PCAF): 18%
- inhibition at 20 µM (SMARCA2): 15%
- inhibition at 20 µM (SMARCA4): 7%
- inhibition at 20 µM (TAF1L(2)): 98%
- inhibition at 20 µM (TRIM24(PHD, Bromo.)): 6%
- inhibition at 20 µM (WDR9(2)): 84%
Compound: C[C@@H]1COCCN1c1cc(C2([S@](C)(=N)=O)CC2)nc(-c2cc[nH]c3nccc2-3)n1 [AZD6738]
- Interaction with BRD2-2, BRD3-2, BRD4-2, CECR2 and WDR9-2 (panel of 32 bromodomains): interacted weakly; also recorded: weakly interacted
- p53 and p21 levels (A549 lung cancer cells; A549, 10 μM, 24 h, western blot): modest increase
- MDMX levels (A549 lung cancer cells; A549, western blot): modest effect
- % Inhibition TRIM33(PHD, Bromo.) (TRIM33(PHD, Bromo.)): 0%
